Common to all, as to experiment: relative viability (nuclei count vs DMSO), 5 days (fraction); higher = more cells survive
Compound in the assay “XMD8-85 + Crizotinib”: CN1CCN(CC1)C2=CC(=C(C=C2)NC3=NC=C4C(=N3)N(C5=CC=CC=C5C(=O)N4C)C)OC [XMD8-85] + C[C@@H](Oc1cc(-c2cnn(C3CCNCC3)c2)cnc1N)c1c(Cl)ccc(F)c1Cl [Crizotinib] (partner 1 µM)
The method in brief: (§1)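 After 5 days of treatment, lung cancer cells in 1536-well plates were fixed and stained in a single step (final 0.05% Triton X-100, 1% formaldehyde, 1 ug/ml Hoechst) and their nuclei counted on 4× images. Treatment had been applied by pin tool the day after seeding as one drug alone or as a fixed anchor-drug dose with five library-drug doses (not always all listed) in √10 steps. Relative viability is the nuclei count of treated wells divided by that of vehicle wells, and values are medians of duplicate plates.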

Compound in the assay “4EGI-1 + Navitoclax”: O=C(O)C(Cc1ccccc1[N+](=O)[O-])=NNc1nc(-c2ccc(Cl)c(Cl)c2)cs1 (mixture of isomers) [4EGI-1] + CC1(C)CCC(c2ccc(Cl)cc2)=C(CN2CCN(c3ccc(C(=O)NS(=O)(=O)c4ccc(N[C@H](CCN5CCOCC5)CSc5ccccc5)c(S(=O)(=O)C(F)(F)F)c4)cc3)CC2)C1 [Navitoclax] (partner 0.5 µM)
The method in brief:
as §1

Compound in the assay “4EGI-1 + Luminespib”: O=C(O)C(Cc1ccccc1[N+](=O)[O-])=NNc1nc(-c2ccc(Cl)c(Cl)c2)cs1 (mixture of isomers) [4EGI-1] + CCNC(=O)c1noc(-c2cc(C(C)C)c(O)cc2O)c1-c1ccc(CN2CCOCC2)cc1 [Luminespib] (partner 0.01 µM)
The method in brief: as §1

Compound in the assay “4EGI-1 + Dasatinib”: O=C(O)C(Cc1ccccc1[N+](=O)[O-])=NNc1nc(-c2ccc(Cl)c(Cl)c2)cs1 (mixture of isomers) [4EGI-1] + Cc1nc(Nc2ncc(C(=O)Nc3c(C)cccc3Cl)s2)cc(N2CCN(CCO)CC2)n1 [Dasatinib] (partner 0.075 µM)
The method in brief:
as §1

On to NCI-H2087, for which the relative viability in the assay with XMD8-85 + Crizotinib (first compound 0.08 µM) was determined as 0.821; with XMD8-85 + Crizotinib (first compound 0.253 µM), 0.857; with XMD8-85 + Crizotinib (first compound 0.8 µM), 0.994; in the assay with XMD8-85 + Crizotinib (first compound 2.53 µM) it was 0.994; with XMD8-85 + Crizotinib (first compound 8 µM) it was 0.674; with 4EGI-1 + Navitoclax (first compound 0.5 µM), 1.08. In addition, the relative viability amounted to 0.883 with 4EGI-1 + Navitoclax (first compound 1.581 µM); 0.999 in the assay with 4EGI-1 + Navitoclax (first compound 5 µM); 0.647 in the assay with 4EGI-1 + Navitoclax (first compound 15.81 µM); 0.218 in the assay with 4EGI-1 + Navitoclax (first compound 50 µM); 0.191 in the assay with 4EGI-1 + Luminespib (first compound 0.5 µM); 0.139 with 4EGI-1 + Luminespib (first compound 1.581 µM). For the same cell line, the relative viability with 4EGI-1 + Luminespib (first compound 5 µM) was determined as 0.198; with 4EGI-1 + Luminespib (first compound 15.81 µM) it was 0.206; with 4EGI-1 + Luminespib (first compound 50 µM), 0.135; with 4EGI-1 + Dasatinib (first compound 0.5 µM), 0.837; with 4EGI-1 + Dasatinib (first compound 1.581 µM) it was 0.676; in the assay with 4EGI-1 + Dasatinib (first compound 5 µM), 0.918. In addition, the relative viability with 4EGI-1 + Dasatinib (first compound 15.81 µM) was found to be 0.493; with 4EGI-1 + Dasatinib (first compound 50 µM), 0.27.
In the case of NCI-H1650, the relative viability worked out at 1.01 with XMD8-85 + Crizotinib (first compound 0.08 µM); 0.773 with XMD8-85 + Crizotinib (first compound 0.253 µM); 1.12 in the assay with XMD8-85 + Crizotinib (first compound 0.8 µM); 0.715 with XMD8-85 + Crizotinib (first compound 2.53 µM); 0.256 with XMD8-85 + Crizotinib (first compound 8 µM); 1.23 with 4EGI-1 + Navitoclax (first compound 0.5 µM). Further, the relative viability in the assay with 4EGI-1 + Navitoclax (first compound 5 µM) came out at 0.932; in the assay with 4EGI-1 + Navitoclax (first compound 15.81 µM), 0.354; in the assay with 4EGI-1 + Navitoclax (first compound 50 µM), 0.286; in the assay with 4EGI-1 + Luminespib (first compound 0.5 µM), 0.197; in the assay with 4EGI-1 + Luminespib (first compound 5 µM), 0.19; with 4EGI-1 + Luminespib (first compound 15.81 µM) it was 0.203. Further, the relative viability in the assay with 4EGI-1 + Luminespib (first compound 50 µM) worked out at 0.221; with 4EGI-1 + Dasatinib (first compound 0.5 µM), 0.307; in the assay with 4EGI-1 + Dasatinib (first compound 5 µM), 0.364; with 4EGI-1 + Dasatinib (first compound 15.81 µM), 0.219; in the assay with 4EGI-1 + Dasatinib (first compound 50 µM), 0.136.
Regarding CAL-12T, the relative viability amounted to 0.357 in the assay with XMD8-85 + Crizotinib (first compound 0.08 µM); 0.664 in the assay with XMD8-85 + Crizotinib (first compound 0.253 µM); 0.779 with XMD8-85 + Crizotinib (first compound 0.8 µM); 0.474 with XMD8-85 + Crizotinib (first compound 2.53 µM); 0.15 in the assay with XMD8-85 + Crizotinib (first compound 8 µM); 1.1 with 4EGI-1 + Navitoclax (first compound 0.5 µM). The relative viability was found to be 1.17 in the assay with 4EGI-1 + Navitoclax (first compound 5 µM); 1.23 with 4EGI-1 + Navitoclax (first compound 15.81 µM); 0.861 with 4EGI-1 + Navitoclax (first compound 50 µM); 0.411 in the assay with 4EGI-1 + Luminespib (first compound 0.5 µM); 0.149 with 4EGI-1 + Luminespib (first compound 1.581 µM); 0.186 with 4EGI-1 + Luminespib (first compound 5 µM). The relative viability came to 0.4 in the assay with 4EGI-1 + Luminespib (first compound 15.81 µM); 0.251 with 4EGI-1 + Luminespib (first compound 50 µM); 0.504 in the assay with 4EGI-1 + Dasatinib (first compound 0.5 µM); 0.206 in the assay with 4EGI-1 + Dasatinib (first compound 1.581 µM); 0.449 with 4EGI-1 + Dasatinib (first compound 5 µM); 0.297 with 4EGI-1 + Dasatinib (first compound 15.81 µM). Besides, the relative viability with 4EGI-1 + Dasatinib (first compound 50 µM) turned out to be 0.0969.
With NCI-H1355, the relative viability with XMD8-85 + Crizotinib (first compound 0.08 µM) was 1.16; with XMD8-85 + Crizotinib (first compound 0.253 µM), 1.07; with XMD8-85 + Crizotinib (first compound 0.8 µM) it was 1.06; in the assay with XMD8-85 + Crizotinib (first compound 2.53 µM), 0.989; with XMD8-85 + Crizotinib (first compound 8 µM), 0.77; with 4EGI-1 + Navitoclax (first compound 0.5 µM), 1.07. The relative viability in the assay with 4EGI-1 + Navitoclax (first compound 1.581 µM) was found to be 0.95; in the assay with 4EGI-1 + Navitoclax (first compound 5 µM), 0.841; in the assay with 4EGI-1 + Navitoclax (first compound 15.81 µM), 0.644; in the assay with 4EGI-1 + Navitoclax (first compound 50 µM) it was 0.677; in the assay with 4EGI-1 + Luminespib (first compound 0.5 µM), 0.708; with 4EGI-1 + Luminespib (first compound 1.581 µM), 0.706. In addition, the relative viability in the assay with 4EGI-1 + Luminespib (first compound 5 µM) was 0.762; in the assay with 4EGI-1 + Luminespib (first compound 15.81 µM) it was 0.445; with 4EGI-1 + Luminespib (first compound 50 µM), 0.326; with 4EGI-1 + Dasatinib (first compound 0.5 µM) it was 0.786; in the assay with 4EGI-1 + Dasatinib (first compound 1.581 µM), 0.64; with 4EGI-1 + Dasatinib (first compound 5 µM), 0.682. In addition, the relative viability in the assay with 4EGI-1 + Dasatinib (first compound 15.81 µM) stood at 0.497; with 4EGI-1 + Dasatinib (first compound 50 µM), 0.349.
On to NCI-H2170, for which the relative viability with XMD8-85 + Crizotinib (first compound 0.08 µM) stood at 1.18; with XMD8-85 + Crizotinib (first compound 0.253 µM) it was 1.01; with XMD8-85 + Crizotinib (first compound 0.8 µM), 1.27; with XMD8-85 + Crizotinib (first compound 2.53 µM), 1.28; in the assay with XMD8-85 + Crizotinib (first compound 8 µM), 0.966; in the assay with 4EGI-1 + Navitoclax (first compound 0.5 µM), 0.671. Moreover, the relative viability with 4EGI-1 + Navitoclax (first compound 1.581 µM) stood at 0.515; in the assay with 4EGI-1 + Navitoclax (first compound 5 µM) it was 0.584; with 4EGI-1 + Navitoclax (first compound 15.81 µM) it was 0.573; with 4EGI-1 + Navitoclax (first compound 50 µM), 0.354; with 4EGI-1 + Luminespib (first compound 0.5 µM), 0.931; in the assay with 4EGI-1 + Luminespib (first compound 1.581 µM), 0.635. Moreover, the relative viability is 0.778 in the assay with 4EGI-1 + Luminespib (first compound 5 µM); 0.741 with 4EGI-1 + Luminespib (first compound 15.81 µM); 0.352 with 4EGI-1 + Luminespib (first compound 50 µM); 0.676 with 4EGI-1 + Dasatinib (first compound 0.5 µM); 0.504 with 4EGI-1 + Dasatinib (first compound 1.581 µM); 0.628 with 4EGI-1 + Dasatinib (first compound 5 µM). Further, the values for the relative viability with 4EGI-1 + Dasatinib (first compound 15.81 µM) and with 4EGI-1 + Dasatinib (first compound 50 µM) were 0.473 and 0.173, respectively.
LK-2: the relative viability with XMD8-85 + Crizotinib (first compound 0.08 µM) stood at 0.232; in the assay with XMD8-85 + Crizotinib (first compound 0.253 µM), 0.244; in the assay with XMD8-85 + Crizotinib (first compound 0.8 µM) it was 0.201; in the assay with XMD8-85 + Crizotinib (first compound 2.53 µM) it was 0.226; in the assay with XMD8-85 + Crizotinib (first compound 8 µM) it was 0.262; in the assay with 4EGI-1 + Navitoclax (first compound 0.5 µM), 1.18. Besides, the relative viability in the assay with 4EGI-1 + Navitoclax (first compound 5 µM) was determined as 1.16; in the assay with 4EGI-1 + Navitoclax (first compound 15.81 µM), 1.14; with 4EGI-1 + Navitoclax (first compound 50 µM), 0.877; in the assay with 4EGI-1 + Luminespib (first compound 0.5 µM) it was 0.192; with 4EGI-1 + Luminespib (first compound 5 µM), 0.269; in the assay with 4EGI-1 + Luminespib (first compound 15.81 µM) it was 0.206. Besides, the relative viability worked out at 0.162 with 4EGI-1 + Luminespib (first compound 50 µM); 0.253 in the assay with 4EGI-1 + Dasatinib (first compound 0.5 µM); 0.309 with 4EGI-1 + Dasatinib (first compound 5 µM); 0.254 in the assay with 4EGI-1 + Dasatinib (first compound 15.81 µM); 0.134 with 4EGI-1 + Dasatinib (first compound 50 µM).
Take NCI-H2023: the relative viability in the assay with XMD8-85 + Crizotinib (first compound 0.08 µM) was 0.578; in the assay with XMD8-85 + Crizotinib (first compound 0.253 µM), 0.627; with XMD8-85 + Crizotinib (first compound 0.8 µM), 0.705; in the assay with XMD8-85 + Crizotinib (first compound 2.53 µM), 0.544; in the assay with XMD8-85 + Crizotinib (first compound 8 µM), 0.287; in the assay with 4EGI-1 + Navitoclax (first compound 0.5 µM), 1. Also, the relative viability in the assay with 4EGI-1 + Navitoclax (first compound 5 µM) turned out to be 0.989; in the assay with 4EGI-1 + Navitoclax (first compound 15.81 µM), 0.626; with 4EGI-1 + Navitoclax (first compound 50 µM) it was 0.175; in the assay with 4EGI-1 + Luminespib (first compound 0.5 µM) it was 0.897; with 4EGI-1 + Luminespib (first compound 1.581 µM) it was 0.544; with 4EGI-1 + Luminespib (first compound 5 µM), 0.798. The relative viability with 4EGI-1 + Luminespib (first compound 15.81 µM) stood at 0.203; with 4EGI-1 + Luminespib (first compound 50 µM), 0.0714; with 4EGI-1 + Dasatinib (first compound 0.5 µM), 0.599; in the assay with 4EGI-1 + Dasatinib (first compound 5 µM), 0.605; in the assay with 4EGI-1 + Dasatinib (first compound 15.81 µM) it was 0.226; in the assay with 4EGI-1 + Dasatinib (first compound 50 µM), 0.0859.

The record behind these values is the supplement of paper PMC10307832.
